# From patent US8399466B2, “Composition for regenerative treatment of cartilage disease” (Mitsubishi Tanabe Pharma Corporation, priority 2001, dated 2013)
# Key:
# [1] = test system: cAMP-hydrolyzing PDE expressed in articular cartilage (PDE4-related peaks); experiment: cAMP hydrolyzing activity (PDE activity) of Mono Q fractions of articular cartilage extract, radio-labeled nucleic acid assay; assay type: biochemical, rabbit; conditions: final concentration 1×10^−5 M; FIG. 1
# Method: Four NZW line rabbits (Kitayama Labes., Co Ltd.; male; 4-week-old) were sacrificed with bleeding under ether anesthesia and femur knee joints were collected aseptically. The collected knee joints were stored in phosphate buffer (pH 7.2) containing 0.2% glucose and only the cortical layer of knee joint portion was scrapped with a knife into a 50 ml tube containing phosphate buffer (pH 7.2) containing 0.2% glucose. The collected knee joint cortical layer was cut into as small sections as possible on a dish with a razor, washed with ice-cold phosphate buffer and homogenized with a homogenizer (Polytron: Kinematica A.G.) in homogenization buffer (20 mM Tris-HCl, pH 7.4, 2 mM magnesium acetate, 0.3 mM calcium chloride, 1 mM dithiothreitol, 40 μM leupeptin, 1.3 mM benzamidine, 0.2 mM phenylmethylsulfonyl fluoride and 1 mM sodium azide). The resultant homogenate was centrifuged (100,000×g, 60 minutes) to separate supernatant.
# The supernatant was subjected to Mono Q Sepharose High Performance column (Amersham Pharmacia Biotech) previously equilibrated with an elution buffer (20 mM Tris-HCl, pH 7.4, 1 mM calcium chloride, 1 mM dithiothreitol, 2 μM leupeptin, 5 mM benzamidine). […]
# The determination of PDE activity was performed by a radio-labeled nucleic acid assay. […] To each eluate was added a liquid scintillation cocktail and the radio activity was measured.
# articular chondrocytes = experiment: Increase of matrix production of articular chondrocytes (Alcian blue staining of proteoglycan); assay type: cell-based, rabbit; conditions: for Proteoglycan Production (%): cultivation until day 5, vehicle = 100
# Method: Four NZW line rabbits (Kitayama Labes., Co Ltd.; male; 4-week-old) were sacrificed with bleeding under ether anesthesia and femur knee joints were collected aseptically. The collected knee joints were stored in phosphate buffer (pH 7.2) containing 0.2% glucose and only the cortical layer of knee joint was scrapped with a surgical knife into a 50 ml tube containing phosphate buffer (pH 7.2) containing 0.2% glucose. The collected knee joint cortical layer was cut into as small sections as possible on a dish with a razor and shaken at 37° C. for 15 minutes in phosphate buffer containing 0.2% glucose, supplied with 10× trypsin-ethylenediamine tetraacetic acid (EDTA)·4 Na salt (GIBCO; Cat. No. 15400-054) (50 ml, with 100 mg of trypsin and 40 mg of EDTA·4Na; pH 7.2). After shaking, the sample was centrifuged (1,400 rpm) to collect precipitates, and the precipitates were washed twice with 40 ml of phosphate buffer containing 0.2% glucose. The washed precipitates were combined with 40 ml of serum-free α-minimum essential medium (MEM: GIBCO; Cat: No. 12571-063) containing 60 mg of collagenase for cell diffusion (Wako Pure Chemical Industries, Ltd., 034-10533) and transferred to a 100 ml beaker containing a sterilized stirrer bar. Under stirring with the stirrer bar, the collagenase digestion was carried on for about 1 hour in a CO2 incubator at 37° C. Cartilage fragments were removed from the collagenase-treated cells using a […] Cell Strainer ([FALCON; Cat. No. 2340]). To the residual treated cells was added 10 ml of α-MEM medium containing 10% fetal calf serum (FCS), and centrifuged (1,400 rpm). The precipitates were washed with 10% FCS-αMEM medium twice, suspended in appropriate volume of the same medium and the resultant suspension was seeded into collagen type II (Wako Pure Chemical Industries, Ltd., 033-13901)-coated plates (48 well) at 20,000 cells/well. On the next day, the medium was replaced with 10% FCS-αMEM medium.
# When cells reached to confluent after the medium exchange procedure above, the medium for test group was replaced with test compound-containing medium (including 0.1% dimethylsulfoxide as a vehicle). As a medium to which a test compound is added, 10% FCS-αMEM medium containing 0.2 mM ascorbic acid was used. The day on which test compound-containing medium was added for the first time was defined as “day 1”. The medium exchange with the same medium was again conducted at day 3 and the cultivation continued until day 5. As to the control group, the medium was exchanged at the same time using the same medium as the test group except that it is free of test compound (containing vehicle only), and the cultivation was carried out in the same manner. After completion of cultivation, the supernatant was removed from the culture medium. Cells were fixed by addition of 0.25 ml of neutral buffer containing 4% paraformaldehyde and incubation for 2 hours. Cells were washed three times with 1 ml of phosphate buffer (pH 7.2) and then stained for 4 hours with 0.1% Alcian blue 8GX (Sigma; A3157) dissolved in 0.1 M hydrochloric acid, which Alcian blue selectively stains cartilage matrix proteoglycan. After staining, the cells were washed 3 times with 1 ml of phosphate buffer (pH 7.2). Alcian blue which had stained cartilage matrix was dissolved with 0.25 ml of aqueous 6 M guanidine hydrochloride solution and a portion of the solution was used to determine the absorbance at 620 nm. The amounts of Alcian blue used for staining was calculated from the absorbance, which in turn was used for the estimation of the amount of matrix (proteoglycan).
structure (smiles),measurement,setting,value
COc1ccc(C2CNC(=O)C2)cc1OC1CCCC1 (stereo not shown) [Compound (44)],inhibition of cAMP hydrolyzing activity of the four peaks,[1],strongly inhibited
same,Proteoglycan Production (%),articular chondrocytes; 1 × 10^−4 M,116%
same,Proteoglycan Production (%),articular chondrocytes; 1 × 10^−5 M,125%
same,matrix production promoting activity,articular chondrocytes; summary of Table 1,exert matrix production promoting activity
